Our source for the IC50 values is patent publication US20240083888A1, “SMALL MOLECULE INHIBITOR FOR CATHEPSIN C AND MEDICINAL USE THEREOF” (REISTONE BIOPHARMA COMPANY LIMITED, priority 2020, published 2024).

As usually defined, the pIC50 is the IC50 on a negative log10 scale, so that one unit is a factor of ten.

pIC50: −log10 of the molar value. Where a name gives a salt, the structure may show the parent alone.

In the first assay the target is rhCatC (Homo sapiens (Human), UniProt P53634). Nature of the assay: In vitro enzyme activity experiment of rhCatC (AMC fluorescence assay). It counts as biochemical.
Chain of rhCatC (P53634 25-134): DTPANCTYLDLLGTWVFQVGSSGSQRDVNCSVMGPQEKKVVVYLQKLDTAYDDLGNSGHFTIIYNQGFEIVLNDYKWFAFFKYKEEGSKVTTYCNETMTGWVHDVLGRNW
Chain of rhCatC (P53634 231-394): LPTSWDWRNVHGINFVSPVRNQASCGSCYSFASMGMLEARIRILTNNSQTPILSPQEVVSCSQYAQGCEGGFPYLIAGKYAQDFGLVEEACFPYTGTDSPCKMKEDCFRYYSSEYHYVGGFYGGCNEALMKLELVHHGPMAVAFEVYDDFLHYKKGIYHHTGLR
Chain of rhCatC (P53634 395-463): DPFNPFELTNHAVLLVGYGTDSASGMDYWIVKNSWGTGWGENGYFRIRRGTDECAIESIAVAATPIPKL
Settings: not given
On the procedure:
The in vitro inhibitory effect of compounds and positive control on rhCatC enzyme activity was evaluated by AMC fluorescence assay. rhCatC can catalyze the reaction of substrate peptide H-Gly-Arg-AMC, and release AMC to generate fluorescence. […] The compound was diluted with DMSO to a 384-well echo plate at a concentration of 100× of the highest concentration at the beginning of the experiment. 0.2 μL of the diluted compound was pipetted to a black-bottomed 384-well reaction plate for later use. The negative control well was DMSO. • 2) Activation of rhCatC: RhCatC and rhCatL were added to the activation buffer to obtain a final concentration of rhCatC of 100 μg/mL and a final concentration of rhCatL of 20 μg/mL, and incubated at room temperature for 1 hour. • 3) Enzyme activity reaction: Activated rhCatC was diluted to 0.4 μg/mL with the reaction buffer. The solution was added to the black-bottom 384-well reaction plate ([…]). 10 μL of the buffer was added for the vehicle control group. The plate containing compounds in its wells was incubated at room temperature for 30 minutes.
The RLU data was read, the inhibition rate was calculated, and the IC50 value was calculated according to the fitting curve of concentration and inhibition rate.
As to `N#Cc1cc2c(cn1)-c1cc(F)c(C[C@@H](C#N)NC(=O)[C@@H]3CNCCCO3)cc1OC2` [Compound 19, (S)—N—((S)-1-Cyano-2-(3-cyano-9-fluoro-5H-chromeno[4,3-c]pyridin-8-yl)ethyl)-1,4-oxazepane-2-carboxamide], the pIC50 was 7.49.

For the compound `CS(=O)(=O)c1ccc2c(c1)-c1cc(F)c(CC(C#N)NC(=O)[C@@H]3CNCCCO3)cc1OC2` (stereo partly drawn) [Compound 43, (2S)—N-(1-Cyano-2-(2-fluoro-9-(methylsulfonyl)-6H-benzo[c]chromen-3-yl)ethyl)-1,4-oxazepane-2-carboxamide], the pIC50 is 7.59.

The same assay, now with this note: rhCatC enzyme, substrate H-Gly-Arg-AMC; read-out: Biological activity IC50.
Take `N#C[C@H](Cc1ccc2c(c1)CN(c1ccccc1)C2=O)NC(=O)C1(N)CCOCC1` [Compound 1, (S)-4-Amino-N-(1-cyano-2-(1-oxo-2-phenylisoindolin-5-yl)ethyl)tetrahydro-2H-pyran-4-carboxamide]: the negative-log IC50 (pIC50) is 7.38.

On to `N#C[C@H](Cc1ccc2c(c1)CN(c1ccccc1)C2=O)NC(=O)[C@@H]1CNCCCO1` [Compound 2, (S)—N—((S)-1-Cyano-2-(1-oxo-2-phenylisoindolin-5-yl)ethyl)-1,4-oxazepane-2-carboxamide], for which the pIC50 is 6.15.

As to `N#CC(Cc1ccc2c(c1)CCCC2)NC(=O)[C@@H]1CNCCCO1` (stereo partly drawn) [Compound 3, (2S)—N-(1-Cyano-2-(5,6,7,8-tetrahydronaphthalen-2-yl)ethyl)-1,4-oxazepane-2-carboxamide trifluoroacetate], the pIC50 is 5.37.

As for `N#CC(Cc1ccc2c(c1)CCCC2)NC(=O)C1(N)CCOCC1` (stereo not shown) [Compound 4, 4-Amino-N-(1-cyano-2-(5,6,7,8-tetrahydronaphthalen-2-yl)ethyl)tetrahydro-2H-pyran-4-carboxamide], the pIC50 is 7.27.

As to `N#CC(Cc1ccc2c(c1)CCC2)NC(=O)[C@@H]1CNCCCO1` (stereo partly drawn) [Compound 5, (2S)—N-(1-Cyano-2-(2,3-dihydro-1H-inden-5-yl)ethyl)-1,4-oxazepane-2-carboxamide trifluoroacetate], the negative-log IC50 (pIC50) was 5.45.

For `N#CC(Cc1ccc2c(c1)CCC2)NC(=O)C1(N)CCOCC1` (stereo not shown) [Compound 6, 4-Amino-N-(1-cyano-2-(2,3-dihydro-1H-inden-5-yl)ethyl)tetrahydro-2H-pyran-4-carboxamide], the pIC50 is 7.25.

For `CN1CCc2cc(C[C@@H](C#N)NC(=O)[C@@H]3CNCCCO3)ccc2C1` [Compound 9, (S)—N—((S)-1-Cyano-2-(2-methyl-1,2,3,4-tetrahydroisoquinolin-6-yl)ethyl)-1,4-oxazepane-2-carboxamide], the pIC50 is 5.76.

Turning to `N#C[C@H](Cc1ccc2c(c1)OCCC2)NC(=O)C1(N)CCOCC1` [Compound 10, (S)-4-Amino-N-(2-(chroman-7-yl)-1-cyanoethyl)tetrahydro-2H-pyran-4-carboxamide], the pIC50 was 7.13.

`N#CC(Cc1ccc2c(c1)OCc1cc(F)ccc1-2)NC(=O)[C@@H]1CNCCCO1` (stereo partly drawn) [Compound 11, (2S)—N-(1-Cyano-2-(8-fluoro-6H-benzo[c]chromen-3-yl)ethyl)-1,4-oxazepane-2-carboxamide formate]: the pIC50 was 7.13.

For the compound `N#CC(Cc1ccc2c(c1)COc1cc(F)ccc1-2)NC(=O)[C@@H]1CNCCCO1` (stereo partly drawn) [Compound 15, (2S)—N-(1-Cyano-2-(3-fluoro-6H-benzo[c]chromen-8-yl)ethyl)-1,4-oxazepane-2-carboxamide], the pIC50 was 6.52.

Consider `CC1(C)Oc2cc(C[C@@H](C#N)NC(=O)[C@@H]3CNCCCO3)c(F)cc2-c2ccc(C#N)cc21` [Compound 27, (S)—N—((S)-1-Cyano-2-(8-cyano-2-fluoro-6,6-dimethyl-6H-benzo[c]chromen-3-yl)ethyl)-1,4-oxazepane-2-carboxamide], for which the pIC50 was 7.64.

On to `N#Cc1cnc2c(c1)COc1cc(CC(C#N)NC(=O)[C@@H]3CNCCCO3)c(F)cc1-2` (stereo partly drawn) [Compound 33, (2S)—N-(1-Cyano-2-(3-cyano-9-fluoro-5H-chromeno[4,3-b]pyridin-8-yl)ethyl)-1,4-oxazepane-2-carboxamide], for which the pIC50 is 7.07.

On to `N#CC(Cc1ccc2c(c1)OCc1ccc(C3CCNC3)cc1-2)NC(=O)C1(N)CCOCC1` (stereo not shown) [Compound 34, 4-Amino-N-(1-cyano-2-(9-(pyrrolidin-3-yl)-6H-benzo[c]chromen-3-yl)ethyl)tetrahydro-2H-pyran-4-carboxamide], for which the pIC50 is 8.21.

For `N#C[C@H](Cc1cc2c(cc1F)-c1cc(C3COC3)c(F)cc1CO2)NC(=O)[C@@H]1CNCCCO1` [Compound 38A, (S)—N—((S)-1-Cyano-2-(2,8-difluoro-9-(oxetan-3-yl)-6H-benzo[c]chromen-3-yl)ethyl)-1,4-oxazepane-2-carboxamide], the pIC50 is 8.89.

`N#C[C@@H](Cc1cc2c(cc1F)-c1cc(C3COC3)c(F)cc1CO2)NC(=O)[C@@H]1CNCCCO1` [Compound 38B, (S)—N—((R)-1-Cyano-2-(2,8-difluoro-9-(oxetan-3-yl)-6H-benzo[c]chromen-3-yl)ethyl)-1,4-oxazepane-2-carboxamide]: the pIC50 was 7.12.

In the case of `N#CC(Cc1ccc2c(c1)CCOc1cc(F)ccc1-2)NC(=O)C1(N)CCOCC1` (stereo not shown) [Compound 39, 4-Amino-N-(1-cyano-2-(3-fluoro-6,7-dihydrodibenzo[b,d]oxepin-9-yl)ethyl)tetrahydro-2H-pyran-4-carboxamide], the pIC50 is 7.34.

On to `N#C[C@H](Cc1ccc2c(c1)oc1cc(F)ccc12)NC(=O)C1(N)CCOCC1` [Compound 42, (S)-4-Amino-N-(1-cyano-2-(7-fluorodibenzo[b,d]furan-3-yl)ethyl)tetrahydro-2H-pyran-4-carboxamide], for which the pIC50 was 8.24.

Take `N#C[C@H](Cc1ccc2c(c1)OCCN(c1ccc(F)cc1)C2=O)NC(=O)C1(N)CCOCC1` [Compound 44, (S)-4-Amino-N-(1-cyano-2-(4-(4-fluorophenyl)-5-oxo-2,3,4,5-tetrahydrobenzo[f][1,4]oxazepin-8-yl)ethyl)tetrahydro-2H-pyran-4-carboxamide]: the pIC50 was 7.41.

For `N#Cc1ccc(N2Cc3cc(C[C@@H](C#N)NC(=O)C4(N)CCOCC4)ccc3C2=O)cc1` [Compound 45, (S)-4-Amino-N-(1-cyano-2-(2-(4-cyanophenyl)-1-oxoisoindolin-5-yl)ethyl)tetrahydro-2H-pyran-4-carboxamide], the pIC50 was 7.14.

In the case of `N#Cc1ccc(C(=O)N2Cc3ccc(C[C@@H](C#N)NC(=O)C4(N)CCOCC4)cc3C2)cc1` [Compound 46, (S)-4-Amino-N-(1-cyano-2-(2-(4-cyanobenzoyl)isoindolin-5-yl)ethyl)tetrahydro-2H-pyran-4-carboxamide], the pIC50 was 7.27.

Take `N#Cc1cccc(N2Cc3cc(C[C@@H](C#N)NC(=O)C4(N)CCOCC4)ccc3C2=O)c1` [Compound 47, (S)-4-Amino-N-(1-cyano-2-(2-(3-cyanophenyl)-1-oxoisoindolin-5-yl)ethyl)tetrahydro-2H-pyran-4-carboxamide formate]: the pIC50 was 7.54.

For the compound `Cn1c(=O)oc2ccc(N3Cc4cc(C[C@@H](C#N)NC(=O)C5(N)CCOCC5)ccc4C3=O)cc21` [Compound 48, (S)-4-Amino-N-(1-cyano-2-(2-(3-methyl-2-oxo-2,3-dihydrobenzo[d]oxazol-5-yl)-1-oxoisoindolin-5-yl)ethyl)tetrahydro-2H-pyran-4-carboxamide], the pIC50 was 7.54.

As to `N#C[C@H](Cc1ccc2c(c1)CCN(c1ccccc1)C2=O)NC(=O)C1(N)CCOCC1` [Compound 49, (S)-4-Amino-N-(1-cyano-2-(1-oxo-2-phenyl-1,2,3,4-tetrahydroisoquinolin-6-yl)ethyl)tetrahydro-2H-pyran-4-carboxamide], the pIC50 was 7.24.

With `N#C[C@H](Cc1ccc2c(c1)C(=O)N(c1ccccc1)C2)NC(=O)C1(N)CCOCC1` [Compound 50, (S)-4-Amino-N-(1-cyano-2-(3-oxo-2-phenylisoindolin-5-yl)ethyl)tetrahydro-2H-pyran-4-carboxamide], the pIC50 was 7.72.

Consider `CN1CCc2cc(C[C@@H](C#N)NC(=O)C3(N)CCOCC3)ccc2C1` [Compound 51, (S)-4-Amino-N-(1-cyano-2-(2-methyl-1,2,3,4-tetrahydroisoquinolin-6-yl)ethyl)tetrahydro-2H-pyran-4-carboxamide], for which the pIC50 was 7.41.

Regarding `N#C[C@H](Cc1ccc2c(c1)COCC2)NC(=O)C1(N)CCOCC1` [Compound 52, (S)-4-Amino-N-(1-cyano-2-(isochroman-7-yl)ethyl)tetrahydro-2H-pyran-4-carboxamide trifluoroacetate], the pIC50 is 6.86.

Regarding `N#C[C@H](Cc1ccc2c(c1)OCCN(c1ccc(F)cc1)C2)NC(=O)C1(N)CCOCC1` [Compound 53, (S)-4-Amino-N-(1-cyano-2-(4-(4-fluorophenyl)-2,3,4,5-tetrahydrobenzo[f][1,4]oxazepin-8-yl)ethyl)tetrahydro-2H-pyran-4-carboxamide], the pIC50 is 6.71.

Regarding `N#C[C@H](Cc1ccc2c(c1)CN(c1ccc(F)cc1)C2)NC(=O)C1(N)CCOCC1` [Compound 54, (S)-4-Amino-N-(1-cyano-2-(2-(4-fluorophenyl)isoindolin-5-yl)ethyl)tetrahydro-2H-pyran-4-carboxamide], the pIC50 is 7.55.

On to `N#C[C@H](Cc1ccc2c(c1)CN(C(=O)c1ccc(F)cc1)C2)NC(=O)C1(N)CCOCC1` [Compound 55, (S)-4-Amino-N-(1-cyano-2-(2-(4-fluorobenzoyl)isoindolin-5-yl)ethyl)tetrahydro-2H-pyran-4-carboxamide], for which the pIC50 is 6.76.
